Values quoted from earlier work in US6086919A, “Pharmaceutical composition containing the ace inhibitor ramipril and a dihydropyridine compound” (priority 1994, dated 2000).

Legend:
[1] = tested on: vasodilatory effect; conditions: in words
[2] = tested on: hypertensive patients; patients with clinical signs of congestive heart failure

Q: Which Light stability (when exposed to light) does the source give for `CCOC(=O)C1=C(C)NC(C)=C(C(=O)OC)C1c1cccc(Cl)c1Cl` (centres unmarked) [felodipine] here?
A: The Light stability was “decomposed when exposed to light”.

Q: Which “Vasodilatory effect compared with the R form” value [1] does the source give for `CCOC(=O)C1=C(C)NC(C)=C(C(=O)OC)[C@@H]1c1cccc(Cl)c1Cl` [S form] here?
A: The value was “stronger than the vasodilatory effect of the R form”.

Q: With `CCOC(=O)[C@H](CCc1ccccc1)N[C@@H](C)C(=O)N1[C@H](C(=O)O)C[C@@H]2CCC[C@@H]21` [ramipril] as the compound, how does the Mortality ([2]; clinical signs of congestive heart failure after acute myocardial infarction) read?
A: The Mortality was “reduce mortality”.

Q: And the “Reduction of blood pressure and peripheral arterial resistance” value ([2]; hypertensive patients)?
A: The value was “reduction in peripheral arterial resistance and thus a reduction of the blood pressure without a compensatory rise in heart rate”.

Q: And the “Sensitivity of the substance” value (stability)?
A: The value was “sensitive to high temperature, moisture or compression”.
